Measurements as given in US11072585B2 (PharmAkea, Inc., priority 2015, dated 2021).
Counter-ions that a name gives are not always drawn.

target: human LOXL2 (Homo sapiens (Human), UniProt Q9Y4K0); test: Human LOXL2 amine oxidase activity assay (Amplex Red); type: biochemical; conditions: concentrated conditioned media from CHO cells stably expressing human LOXL2; 2 h at 37° C. with compound; DAP substrate
Description: Example B-1: Human LOXL2 Amine Oxidase Activity Assay
LOXL2 amine oxidase activity is evaluated by measuring Amplex Red fluorescence using 10-20× concentrated conditioned media from CHO cells stably expressing human LOXL2. To assay for amine oxidase activity, 10 μL of the concentrated conditioned media is incubated with 2 μL of test compound in DMSO and 73 μL Assay Buffer (50 mM Borate Buffer, pH8) for 2 h at 37° C. After the 2 h incubation, 5 ul of 10 mM 1,5-Diaminopentane (DAP) diluted in Assay Buffer and 10 μl of Amplex Red Mix (8.5 μl Assay Buffer+0.5 μl of 10 mM Amplex Red+1 μl of 500 U/ml Horseradish Peroxidase) are added and the plate mixed and immediately placed on the FlexStaion for fluorescence measurements. Fluorescence is read in kinetic mode every 2 min for 1 hour at excitation=544 and emission=590. The amine oxidase activity is calculated from the slope of the linear portion of the curve.

Sequence of human LOXL2 (Q9Y4K0 26-774): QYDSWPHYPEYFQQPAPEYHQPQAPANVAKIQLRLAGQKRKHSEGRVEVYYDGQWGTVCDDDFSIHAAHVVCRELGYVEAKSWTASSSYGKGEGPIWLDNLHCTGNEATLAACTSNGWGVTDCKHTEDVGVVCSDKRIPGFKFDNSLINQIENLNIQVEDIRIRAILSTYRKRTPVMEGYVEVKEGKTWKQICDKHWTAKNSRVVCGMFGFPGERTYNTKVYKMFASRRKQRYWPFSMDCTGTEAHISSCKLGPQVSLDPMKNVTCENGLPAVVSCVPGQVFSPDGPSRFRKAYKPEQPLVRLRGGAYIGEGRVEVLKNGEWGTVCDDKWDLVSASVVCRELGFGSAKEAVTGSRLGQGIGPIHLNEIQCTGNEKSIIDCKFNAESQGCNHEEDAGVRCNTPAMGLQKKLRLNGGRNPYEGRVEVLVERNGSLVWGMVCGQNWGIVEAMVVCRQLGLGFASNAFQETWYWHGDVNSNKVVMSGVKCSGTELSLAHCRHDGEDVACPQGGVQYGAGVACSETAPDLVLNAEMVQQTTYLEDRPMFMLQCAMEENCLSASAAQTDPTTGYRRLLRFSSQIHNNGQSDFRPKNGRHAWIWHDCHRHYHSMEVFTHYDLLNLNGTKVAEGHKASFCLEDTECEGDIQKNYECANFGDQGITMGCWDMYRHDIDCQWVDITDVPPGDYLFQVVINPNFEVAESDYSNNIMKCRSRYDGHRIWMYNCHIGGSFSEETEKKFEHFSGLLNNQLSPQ

Compound	IC50 [nM]
NCc1cc(O[C@H]2CCCN(C(=O)c3cc(=O)c4ccccc4o3)C2)nc(C(F)(F)F)c1 [Compound 1-48, (S)-2-(3-((4-(Aminomethyl)-6-(trifluoromethyl)pyridin-2-yl)oxy)piperidine-1-carbonyl)-4H-chromen-4-one trifluoroacetate]	< 300
C#C[C@H](CC(=O)O)NC(=O)c1cccc(Oc2cc(CN)cc(C(F)(F)F)n2)c1 [Compound 1-221, (S)-3-(3-((4-(aminomethyl)-6-(trifluoromethyl)pyridin-2-yl)oxy)benzamido)pent-4-ynoic acid]	300 to 1000
NCc1cc(OC[C@H]2CCCN(C(=O)Nc3ccccc3)C2)nc(C(F)(F)F)c1 [Compound 1-45, (S)-3-(((4-(Aminomethyl)-6-(trifluoromethyl)pyridin-2-yl)oxy)methyl)-N-phenylpiperidine-1-carboxamide trifluoroacetate]	300 to 1000
NCc1cc(Oc2cccc(C(=O)Nc3ncco3)c2)nc(C(F)(F)F)c1 [Compound 1-227, 3-((4-(Aminomethyl)-6-(trifluoromethyl)pyridin-2-yl)oxy)-N-(oxazol-2-yl)benzamide hydrochloride]	< 300
N#CCCNC(=O)c1cccc(Oc2cc(CN)cc(C(F)(F)F)n2)c1 [Compound 1-198, 3-((4-(Aminomethyl)-6-(trifluoromethyl)pyridin-2-yl)oxy)-N-(2-cyanoethyl)benzamide hydrochloride]	< 300
Cn1cc(-n2ccc3c(Oc4cc(CN)cc(C(F)(F)F)n4)cccc32)cn1 [Compound 1-37, (2-((1-(1-Methyl-1H-pyrazol-4-yl)-1H-indol-4-yl)oxy)-6-(trifluoromethyl)pyridin-4-yl) methanamine hydrochloride]	< 300
CONC(=O)c1cccc(Oc2cc(CN)cc(C(F)(F)F)n2)c1 [Compound 1-219, 3-((4-(Aminomethyl)-6-(trifluoromethyl)pyridin-2-yl)oxy)-N-methoxybenzamide hydrochloride]	< 300
N#CC1CN(C(=O)c2cccc(Oc3cc(CN)cc(C(F)(F)F)n3)c2)C1 [Compound 1-199, 1-(3-((4-(Aminomethyl)-6-(trifluoromethyl)pyridin-2-yl)oxy)benzoyl)azetidine-3-carbonitrile trifluoroacetate]	< 300
NCc1cc(NC(=O)c2cccc(C(=O)O)c2)nc(C(F)(F)F)c1 [Compound 1-239, 3-((4-(Aminomethyl)-6-(trifluoromethyl)pyridin-2-yl)carbamoyl)benzoic acid trifluoroacetate]	< 300
NCc1cc(Oc2cccc3c2CCC(=O)N3CCO)nc(C(F)(F)F)c1 [Compound 1-60, 5-((4-(Aminomethyl)-6-(trifluoromethyl)pyridin-2-yl)oxy)-1-(2-hydroxyethyl)-3,4-dihydroquinolin-2(1H)-one hydrochloride]	300 to 1000
NCc1cc(Oc2cccc(C(=O)N3CCc4ccccc4C3)c2)nc(C(F)(F)F)c1 [Compound 1-11, (3-((4-(Aminomethyl)-6-(trifluoromethyl)pyridin-2-yl)oxy)phenyl)(3,4-dihydroisoquinolin-2(1H)-yl)methanone hydrochloride]	< 300
N=C(N)NC(=O)Cn1ccc2c(Oc3cc(CN)cc(C(F)(F)F)n3)cccc21 [Compound 1-234, 2-(4-((4-(Aminomethyl)-6-(trifluoromethyl)pyridin-2-yl)oxy)-1H-indol-1-yl)-N-carbamimidoylacetamide dihydrochloride]	> 1000
Cc1cc(=O)oc2cc(NC(=O)c3cccc(Oc4cc(CN)cc(C(F)(F)F)n4)c3)ccc12 [Compound 1-249, 3-((4-(Aminomethyl)-6-(trifluoromethyl)pyridin-2-yl)oxy)-N-(4-methyl-2-oxo-2H-chromen-7-yl)benzamide hydrochloride]	< 300
C#Cc1cccc(NC(=O)c2cccc(Oc3cc(CN)cc(C(F)(F)F)n3)c2)c1 [Compound 1-247, 3-((4-(Aminomethyl)-6-(trifluoromethyl)pyridin-2-yl)oxy)-N-(3-ethynylphenyl)benzamide hydrochloride]	< 300
NCc1cc(Oc2cccc(C(=O)N[C@H]3CCC[C@H]3O)c2)nc(C(F)(F)F)c1 [Compound 1-210, 3-((4-(Aminomethyl)-6-(trifluoromethyl)pyridin-2-yl)oxy)-N-((1S,2R)-2-hydroxycyclopentyl)benzamide hydrochloride]	< 300
CC(=O)N1CCC2(CC(Oc3cc(CN)cc(C(F)(F)F)n3)C2)C1 (centres unmarked) [Compound 1-244, 1-(2-((4-(Aminomethyl)-6-(trifluoromethyl)pyridin-2-yl)oxy)-6-azaspiro[3.4]octan-6-yl)ethanone hydrochloride]	300 to 1000

Compound	IC50 [nM]
NCc1cc(Oc2cc(O)cc(C(=O)N3C[C@@H](O)[C@H](F)C3)c2)nc(C(F)(F)F)c1 (racemic) [Compound 1-230, Racemic-trans-(3-((4-(aminomethyl)-6-(trifluoromethyl)pyridin-2-yl)oxy)-5-hydroxyphenyl)(3-fluoro-4-hydroxypyrrolidin-1-yl)methanone hydrochloride]	< 300
NCc1cc(Oc2cccc(C(=O)NCc3ccc(F)cc3)c2)nc(C(F)(F)F)c1 [Compound 1-9, 3-((4-(Aminomethyl)-6-(trifluoromethyl)pyridin-2-yl)oxy)-N-(4-fluorobenzyl)benzamide hydrochloride]	< 300
CS(=O)(=O)CCNC(=O)c1cccc(CNc2cc(CN)cc(C(F)(F)F)n2)c1 [Compound 1-106, 3-(((4-(Aminomethyl)-6-(trifluoromethyl)pyridin-2-yl)amino)methyl)-N-(2-(methylsulfonyl)ethyl)benzamide hydrochloride]	< 300
NCc1cc(Oc2cncc(C(=O)N3CC[C@@H](N)C3)c2)nc(C(F)(F)F)c1 [Compound 1-54, (R)-(5-((4-(Aminomethyl)-6-(trifluoromethyl)pyridin-2-yl)oxy)pyridin-3-yl)(3-aminopyrrolidin-1-yl)methanone dihydrochloride]	< 300
NCc1cc(Oc2cccc(C(=O)NCCN3CCOC3=O)c2)nc(C(F)(F)F)c1 [Compound 1-28, 3-((4-(Aminomethyl)-6-(trifluoromethyl)pyridin-2-yl)oxy)-N-(2-(2-oxooxazolidin-3-yl)ethyl)benzamide]	< 300
C#CCCCCNC(=O)c1cccc(Oc2cc(CN)cc(C(F)(F)F)n2)c1 [Compound 1-216, 3-((4-(Aminomethyl)-6-(trifluoromethyl)pyridin-2-yl)oxy)-N-(hex-5-yn-1-yl)benzamide trifluoroacetate]	< 300
NCc1cc(Oc2cccc(C(=O)NC[C@@H](O)CO)c2)nc(C(F)(F)F)c1 [Compound 1-33, (R)-3-((4-(Aminomethyl)-6-(trifluoromethyl)pyridin-2-yl)oxy)-N-(2,3-dihydroxypropyl)benzamide hydrochloride]	< 300
NCc1cc(Oc2cccc(C(=O)NCCO)c2)nc(C(F)(F)F)c1 [Compound 1-16, 3-((4-(Aminomethyl)-6-(trifluoromethyl)pyridin-2-yl)oxy)-N-(2-hydroxyethyl)benzamide hydrochloride]	< 300
CN(C)CCNC(=O)c1cccc(Oc2cc(CN)cc(C(F)(F)F)n2)c1 [Compound 1-35, 3-((4-(Aminomethyl)-6-(trifluoromethyl)pyridin-2-yl)oxy)-N-(2-(dimethylamino)ethyl)benzamide dihydrochloride]	< 300
NCc1cc(Oc2cccc(C(=O)N3CCC(CO)CC3)c2)nc(C(F)(F)F)c1 [Compound 1-204, (3-((4-(Aminomethyl)-6-(trifluoromethyl)pyridin-2-yl)oxy)phenyl)(4-(hydroxymethyl)piperidin-1-yl)methanone hydrochloride]	< 300
NCc1cc(Oc2cccc(C(=O)N[C@H]3COCC[C@@H]3O)c2)nc(C(F)(F)F)c1 [Compound 1-208, 3-((4-(Aminomethyl)-6-(trifluoromethyl)pyridin-2-yl)oxy)-N-((3S,4S)-4-hydroxytetrahydro-2H-pyran-3-yl)benzamide hydrochloride]	< 300
N′-(4-(Aminomethyl)-6-(trifluoromethyl)pyridin-2-yl)-N^3-phenylisophthalamide trifluoroacetate [Compound 1-240]	< 300
CN(C)[C@@H]1CN(C(=O)c2cccc(Oc3cc(CN)cc(C(F)(F)F)n3)c2)C[C@H]1O (racemic) [Compound 1-23, Racemic-trans-(3-((4-(aminomethyl)-6-(trifluoromethyl)pyridin-2-yl)oxy)phenyl)(-3-(dimethylamino)-4-hydroxypyrrolidin-1-yl)methanone hydrochloride]	< 300
NCc1cc(NCc2cccc(C(=O)Nc3ccccc3)c2)nc(C(F)(F)F)c1 [Compound 1-105, 3-(((4-(Aminomethyl)-6-(trifluoromethyl)pyridin-2-yl)amino)methyl)-N-phenylbenzamide hydrochloride]	< 300
C#C[C@H](CC(=O)OC)NC(=O)c1cccc(Oc2cc(CN)cc(C(F)(F)F)n2)c1 [Compound 1-220, Methyl (S)-3-(3-((4-(aminomethyl)-6-(trifluoromethyl)pyridin-2-yl)oxy)benzamido)pent-4-ynoate]	< 300
C#C[C@@H](CC(=O)O)NC(=O)c1cccc(Oc2cc(CN)cc(C(F)(F)F)n2)c1 [Compound 1-223, (R)-3-(3-((4-(aminomethyl)-6-(trifluoromethyl)pyridin-2-yl)oxy)benzamido)pent-4-ynoic acid hydrochloride]	300 to 1000
